Results as given in PubChem BioAssay AID1918940 (Molecular Pharmacology Branch, DTP, NCI, 2023).

Test system: NCI-H211 complex spheroid viability
Experiment: Anticancer human tumor NCI-H211 cell line growth inhibition [LSD1];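 note: luminescent viability read after seven days of drug exposure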;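 for viability, T/C: 100% = DMSO vehicle control viability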
Details: for IC50: curve of first compound; for viability, T/C: stronger effect = lower value
Procedure, shortened: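 Multicellular complex spheroids of tumor cells with human endothelial cells (HUVEC) and mesenchymal stem cells; the LSD1 inhibitor iadademstat was combined with standard-of-care or investigational agents. Top concentration at or near clinical Cmax, half-log dilutions; final DMSO ≤0.25%.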

[1] = second compound 0.1 µM, first compound 0.0316 µM
[2] = second compound 0.1 µM, first compound 0.1 µM
[3] = second compound 0.1 µM, first compound 0.316 µM
[4] = second compound 0.1 µM, first compound 1 µM
[5] = second compound 0.1 µM, first compound 3.16 µM
[6] = second compound 0.1 µM, first compound 10 µM
[7] = second compound 0.316 µM, first compound 0.0316 µM
[8] = second compound 0.316 µM, first compound 0.1 µM
[9] = second compound 0.316 µM, first compound 0.316 µM
[10] = second compound 0.316 µM, first compound 1 µM
[11] = second compound 0.316 µM, first compound 3.16 µM
[12] = second compound 0.316 µM, first compound 10 µM
[13] = second compound 1 µM, first compound 0.0316 µM
[14] = second compound 1 µM, first compound 0.1 µM
[15] = second compound 1 µM, first compound 0.316 µM
[16] = second compound 1 µM, first compound 1 µM
[17] = second compound 1 µM, first compound 3.16 µM
[18] = second compound 1 µM, first compound 10 µM
[19] = second compound 3.16 µM, first compound 0.0316 µM
[20] = second compound 3.16 µM, first compound 0.1 µM
[21] = second compound 3.16 µM, first compound 0.316 µM
[22] = second compound 3.16 µM, first compound 1 µM
[23] = second compound 3.16 µM, first compound 3.16 µM
[24] = second compound 3.16 µM, first compound 10 µM
[25] = second compound 10 µM, first compound 0.0316 µM
[26] = second compound 10 µM, first compound 0.1 µM
[27] = second compound 10 µM, first compound 0.316 µM
[28] = second compound 10 µM, first compound 1 µM
[29] = second compound 10 µM, first compound 3.16 µM
[30] = second compound 10 µM, first compound 10 µM

| Compound | IC50 (second compound 0.1 µM) [µM] | IC50 (second compound 0.316 µM) [µM] | IC50 (second compound 1 µM) [µM] | IC50 (second compound 3.16 µM) [µM] | IC50 (second compound 10 µM) [µM] | viability, T/C [1] [%] | viability, T/C [2] [%] | viability, T/C [3] [%] | viability, T/C [4] [%] | viability, T/C [7] [%] | viability, T/C [8] [%] | viability, T/C [9] [%] | viability, T/C [10] [%] | viability, T/C [13] [%] | viability, T/C [14] [%] | viability, T/C [15] [%] | viability, T/C [16] [%] | viability, T/C [19] [%] | viability, T/C [20] [%] | viability, T/C [21] [%] | further results |
| --- | --- | --- | --- | --- | --- | --- | --- | --- | --- | --- | --- | --- | --- | --- | --- | --- | --- | --- | --- | --- | --- |
| CC(C)c1c(-c2ccccc2)nc2c(C#N)c[nH]n2c1=O + NC1CCC(NC2CC2c2ccccc2)CC1 | > 10 | > 10 | > 10 | > 10 | < 0.0316 | 74.2 | 74.7 | 72 | 81.5 | 84.8 | 81.7 | 72.4 | 72.8 | 69.9 | 80.7 | 77.3 | 60.5 | 46.6 | 56 | 61.6 | viability, T/C [5]: 65.8%; viability, T/C [6]: 85.8%; viability, T/C [11]: 67.2%; viability, T/C [12]: 75.5%; viability, T/C [17]: 62.3%; viability, T/C [18]: 70%; viability, T/C [22]: 65.5%; viability, T/C [23]: 62%; viability, T/C [24]: 60.5%; viability, T/C [25]: 35.2%; viability, T/C [26]: 37.4%; viability, T/C [27]: 32.7%; viability, T/C [28]: 34.9%; viability, T/C [29]: 32.2%; viability, T/C [30]: 32.8% |
| CC1COCCN1c1cc(-c2ccnn2C)c2ccnc(-c3ccn[nH]3)c2n1 (stereo not given) + NC1CCC(NC2CC2c2ccccc2)CC1 | < 0.00316 | 0.00354 | 0.00326 | < 0.00316 | < 0.00316 | 3.03 | 1.88 | 1.99 | 1.97 | 5.04 | 2.3 | 1.83 | 2.11 | 3.22 | 2.14 | 1.98 | 2.52 | 2.82 | 2.03 | 1.63 | viability, T/C (second compound 0.1 µM, first compound 0.00316 µM): 47%; viability, T/C (second compound 0.1 µM, first compound 0.01 µM): 15.9%; viability, T/C (second compound 0.316 µM, first compound 0.00316 µM): 54.4%; viability, T/C (second compound 0.316 µM, first compound 0.01 µM): 12.7%; viability, T/C (second compound 1 µM, first compound 0.00316 µM): 51.1%; viability, T/C (second compound 1 µM, first compound 0.01 µM): 14.4%; viability, T/C (second compound 3.16 µM, first compound 0.00316 µM): 39.7%; viability, T/C (second compound 3.16 µM, first compound 0.01 µM): 13.1%; viability, T/C [22]: 2.4%; viability, T/C (second compound 10 µM, first compound 0.00316 µM): 18.2%; viability, T/C (second compound 10 µM, first compound 0.01 µM): 3.8%; viability, T/C [25]: 1.39%; viability, T/C [26]: 1%; viability, T/C [27]: 0.87%; viability, T/C [28]: 1.21% |
| COc1ccc([C@@H](O)c2cc(-c3ncnc4cc(N5CCOCC5)ccc34)c(F)cc2Cl)nn1 + NC1CCC(NC2CC2c2ccccc2)CC1 | 3.7 | 3.37 | 3.48 | 3.7 | < 0.0316 | 72.7 | 63 | 69.5 | 74.2 | 66.9 | 69.7 | 73.2 | 71.2 | 69.2 | 63.6 | 65.3 | 81.7 | 73.6 | 63.3 | 64 | viability, T/C [5]: 55.8%; viability, T/C [6]: 13.7%; viability, T/C [11]: 52.1%; viability, T/C [12]: 12.6%; viability, T/C [17]: 53.4%; viability, T/C [18]: 11.3%; viability, T/C [22]: 81.5%; viability, T/C [23]: 56.1%; viability, T/C [24]: 11.1%; viability, T/C [25]: 36.9%; viability, T/C [26]: 36.7%; viability, T/C [27]: 36.8%; viability, T/C [28]: 54.3%; viability, T/C [29]: 49%; viability, T/C [30]: 8.03% |
